Measured values reported in patent publication US20250326739A1, “CD38 MODULATORS AND USES THEREOF” (Aeovian Pharmaceuticals, Inc., priority 2022, published 2025).
pIC50: −log10 of the molar value. Counter-ions that a name gives are not always drawn.

Tests used:
[1] = biological target: human CD38 (Homo sapiens (Human), UniProt P28907); experiment: NAD+ cyclase activity assay with human recombinant CD38 protein; assay type: biochemical; details: 1.9 nM human CD38, 15.8 μM e-NAD substrate, fluorescence read-out
Protocol: (§1) Example 5: NAD^+ Cydase Activity Assay with Human or Mouse Recombinant CD38 Protein
(§2) The following assay was used to determine the ability of compounds of the invention to inhibit the hydrolysis of NAD^+ by the human or mouse enzyme, CD38.
(§3) Reaction buffer: 40 mM HEPES/NaOH pH 7.5, 250 mM sucrose, 0.01% Tween
(§4) Final concentrations: 0.6 nM mouse CD38 (4947-AC, Bio-Techne GmbH) 1.9 nM human CD38 (AVI2404, Bio-Techne GmbH)
(§5) Substrate: 15.8 μM Nicotinamide 1,N6-ethenoadenine dinucleotide (E-NAD)
(§6) Read-out: Fluorescence intensity (extinction 300 nm/emission 410 nm)
(§7) Required reaction buffer, required CD38 concentration in reaction buffer and required e-NAD concentration in reaction buffer were prepared. Thereafter, 8 μL of CD38 in reaction buffer were added to High Control and compound concentration wells in 384 well plate (Corning #4514, 384 well, nonbinding surface, low volume, round bottom) and 8 μL of reaction buffer to Low Control. Compound dilutions were transferred via pintool technology that transfers 42.5 nL compound dilutions (12-point dose-response with factor three dilutions in 100% DMSO) well-to-well. Plate was subsequently shaken for 15 s at 1450 rpm and sealed for incubation for 30 min at room temperature. Thereafter, 2 μL of e-NAD in reaction buffer were added with Integra Voyager. After shaking for 15 s at 1450 rpm, plate was sealed, and assay signal was measured continuously with PHERAstar® fluorescence intensity module (extinction 300 nm/emission 410 nm).
(§8) Dose-response curves were constructed using twelve-point factor three dilutions in triplicates per plate. High control (full enzyme activity) was set to assay signal of CD38 and e-NAD in presence of vehicle (DMSO) and Low control (full enzyme inhibition) was set to assay signal of e-NAD and vehicle (DMSO) in absence of CD38. For data analysis, fluorescent signal of traces corresponding to each compound concentration and High and Low control was monitored over time. Each run, High Control (full enzyme activity) was fitted to Linear equation via GraphPad Prism to determine CD38 activity from the slope and determine the time interval of linear phase of reaction to account for minor fluctuations. Thereafter, slopes of all compound concentrations were determined via fitting to same linear equation (GraphPad Prism) over the same time interval as determined for High control. Percentage inhibition was calculated via normalization to High and Low Control via the equation: %−inhibition=100*(1−((Sample−Low control)/(High control−Low control))) Half maximal inhibitory concentration (IC50) values are yielded from the inflection point of the corresponding curve by fitting of resulting percentage inhibition values to standard equation (4 Parameter Logistic Model or Sigmoidal Dose-Response Model) via Excel Fit. Unless otherwise stated, fitting of curves was fixed to 100%-inhibition and unlocked for 0%-inhibition.

[2] = biological target: mouse CD38 (Mus musculus (Mouse), UniProt P56528); experiment: NAD+ cyclase activity assay with mouse recombinant CD38 protein; assay type: biochemical; details: 0.6 nM mouse CD38, 15.8 μM e-NAD substrate, fluorescence read-out
Protocol: as §1, §2, §3, §4, §5, §6, §7, §8

Sequence of human CD38 (P28907 whole entry): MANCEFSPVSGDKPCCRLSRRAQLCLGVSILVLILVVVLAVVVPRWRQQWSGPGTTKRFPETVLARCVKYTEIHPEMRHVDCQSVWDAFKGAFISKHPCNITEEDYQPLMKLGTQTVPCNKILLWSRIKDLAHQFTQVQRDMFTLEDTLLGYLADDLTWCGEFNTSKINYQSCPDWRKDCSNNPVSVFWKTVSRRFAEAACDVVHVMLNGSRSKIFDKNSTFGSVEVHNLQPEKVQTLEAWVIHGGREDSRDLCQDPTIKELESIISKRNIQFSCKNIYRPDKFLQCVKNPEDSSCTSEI
Sequence of mouse CD38 (P56528 whole entry): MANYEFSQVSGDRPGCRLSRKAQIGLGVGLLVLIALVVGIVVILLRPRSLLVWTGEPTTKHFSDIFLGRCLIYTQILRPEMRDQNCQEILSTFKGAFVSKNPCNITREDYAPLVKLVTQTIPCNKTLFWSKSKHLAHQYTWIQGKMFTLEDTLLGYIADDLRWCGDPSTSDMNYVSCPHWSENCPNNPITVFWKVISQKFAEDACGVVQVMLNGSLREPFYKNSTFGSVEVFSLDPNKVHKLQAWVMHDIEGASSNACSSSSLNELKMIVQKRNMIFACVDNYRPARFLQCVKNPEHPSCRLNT

Row | pIC50 [1] | pIC50 [2] | SMILES
1 | 7.00 to 7.52 | 8.00 to 9.00 | COCCC(=O)N1CCC(NC(=O)c2cc(C)cc(-n3ccnc3)n2)CC1 [Compound 20A, 6-(1H-Imidazol-1-yl)-N-(1-(3-methoxypropanoyl)piperidin-4-yl)-4-methylpicolinamide]
2 | < 6.00 | 7.00 to 8.00 | Cc1cc(C(=O)N[C@@H]2CCCN(C)C2)nc(-n2ccnc2)c1 [Compound 59A, (R)-6-(1H-Imidazol-1-yl)-4-methyl-N-(1-methylpiperidin-3-yl)picolinamide]
3 | < 6.00 | < 7.00 | Cc1cc(C(=O)N[C@H]2CCNC2)nc(-n2ccnc2)c1 [Compound 41A, (S)-6-(1H-Imidazol-1-yl)-4-methyl-N-(pyrrolidin-3-yl)picolinamide hydrochloride]
4 | 7.00 to 7.52 | 8.00 to 9.00 | Cc1cc(C(=O)NC2CN(S(C)(=O)=O)C2)nc(-n2ccnc2)c1 [Compound 7A, 6-(1H-Imidazol-1-yl)-4-methyl-N-(1-(methylsulfonyl)azetidin-3-yl)picolinamide]
5 | > 7.52 | > 9.00 | Cc1cc(C(=O)N[C@@H]2CCCOC2)nc(-n2ccnc2)n1 [Compound 69A, (R)-2-(1H-Imidazol-1-yl)-6-methyl-N-(tetrahydro-2H-pyran-3-yl)pyrimidine-4-carboxamide]
6 | < 6.00 | < 7.00 | Cc1cc(C(=O)N[C@@H]2CCNC2)nc(-n2ccnc2)c1 [Compound 52A, (R)-6-(1H-Imidazol-1-yl)-4-methyl-N-(pyrrolidin-3-yl)picolinamide dihydrochloride]
7 | > 7.52 | 8.00 to 9.00 | O=C(N[C@@H]1CCCOC1)c1cc(C(F)(F)F)cc(-n2ccnc2)n1 [Compound 62A, (R)-6-(1H-imidazol-1-yl)-N-(tetrahydro-2H-pyran-3-yl)-4-(trifluoromethyl)picolinamide]
8 | 7.00 to 7.52 | 8.00 to 9.00 | Cc1cc(C(=O)NC2CCN(C(=O)CN3CCOCC3)CC2)nc(-n2ccnc2)c1 [Compound 19A, 6-(1H-Imidazol-1-yl)-4-methyl-N-(1-(2-morpholinoacetyl)piperidin-4-yl)picolinamide]
9 | 6.00 to 7.00 | 8.00 to 9.00 | Cc1cc(C(=O)N[C@H]2CCCNC2=O)nc(-n2ccnc2)c1 [Compound 60A, (S)-6-(1H-Imidazol-1-yl)-4-methyl-N-(2-oxopiperidin-3-yl)picolinamide]
10 | > 7.52 | 8.00 to 9.00 | O=C(N[C@@H]1CCS(=O)(=O)C1)c1cc(C(F)(F)F)cc(-n2ccnc2)n1 [Compound 78A, (R)—N-(1,1-Dioxidotetrahydrothiophen-3-yl)-6-(1H-imidazol-1-yl)-4-(trifluoromethyl)picolinamide]
11 | > 7.52 | > 9.00 | Cc1cc(C(=O)N[C@@H]2CCCOC2)nc(-n2ccnc2)c1 [Compound 44A, (R)-6-(1H-Imidazol-1-yl)-4-methyl-N-(tetrahydro-2H-pyran-3-yl)picolinamide]
12 | < 6.00 | 8.00 to 9.00 | Cc1cc(C(=O)NC2CCNCC2)nc(-n2ccnc2)c1 [Compound 11A, 6-(1H-Imidazol-1-yl)-4-methyl-N-(piperidin-4-yl)picolinamide]
13 | 6.00 to 7.00 | 8.00 to 9.00 | Cc1cc(C(=O)N[C@H]2CCC(C)(C)OC2)nc(-n2ccnc2)c1 [Compound 65A, (S)—N-(6,6-Dimethyltetrahydro-2H-pyran-3-yl)-6-(1H-imidazol-1-yl)-4-methylpicolinamide]
14 | > 7.52 | 8.00 to 9.00 | CCS(=O)(=O)N1CCC(NC(=O)c2cc(C)cc(-n3ccnc3)n2)CC1 [Compound 2A, N-(1-(Ethylsulfonyl)piperidin-4-yl)-6-(1H-imidazol-1-yl)-4-methylpicolinamide]
15 | > 7.52 | 8.00 to 9.00 | Cc1cc(C(=O)NC2CCC(F)(F)CC2)nc(-n2ccnc2)c1 [Compound 8A, N-(4,4-Difluorocyclohexyl)-6-(1H-imidazol-1-yl)-4-methylpicolinamide]
16 | 7.00 to 7.52 | 8.00 to 9.00 | Cc1cc(C(=O)NC2COCC(F)(F)C2)nc(-n2ccnc2)c1 (centres unmarked) [Compound 26A, N-(5,5-Difluorotetrahydro-2H-pyran-3-yl)-6-(1H-imidazol-1-yl)-4-methylpicolinamide]
